In US10336732B2, “1-heterocyclyl isochromanyl compounds and analogs for treating CNS disorders” (Sunovion Pharmaceuticals Inc., priority 2015, dated 2019):

Target: T1, M4 (Homo sapiens, UniProt P08173)
T1 construct: expressed in transfected cells; host or cells: CHO cells
T1 sequence (P08173 1-479): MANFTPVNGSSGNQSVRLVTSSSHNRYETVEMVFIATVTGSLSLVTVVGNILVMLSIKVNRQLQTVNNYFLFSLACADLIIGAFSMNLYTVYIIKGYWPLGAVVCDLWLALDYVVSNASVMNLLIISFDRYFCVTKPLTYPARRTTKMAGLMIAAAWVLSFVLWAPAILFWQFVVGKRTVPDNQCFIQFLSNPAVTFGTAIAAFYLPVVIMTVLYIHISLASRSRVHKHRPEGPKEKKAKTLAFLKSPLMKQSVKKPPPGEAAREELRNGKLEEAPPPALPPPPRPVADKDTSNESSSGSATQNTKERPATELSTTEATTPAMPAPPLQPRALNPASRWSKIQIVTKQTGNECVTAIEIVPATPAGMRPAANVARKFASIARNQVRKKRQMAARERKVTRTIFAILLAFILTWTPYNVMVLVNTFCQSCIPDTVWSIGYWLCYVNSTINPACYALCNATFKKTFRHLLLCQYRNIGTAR
Assay: In vitro radioligand binding assay, M4, [3H]4-DAMP
Details: human recombinant (CHO cells)
Experimental: Certain compounds were tested by in vitro binding assays using standard procedures. […] These receptors and assays are well known to those skilled in the art, as exemplified by the following: Abramovitz, M. et al. (2000), Biochem. Biophys. Acta., 1483: 285-293 (EP4, IP (PGI2)); Aharony, D. et al. (1993), Mol. Pharmacol., 44: 356-363 (NK2); Ardati, A. et al. (1997), Mol. Pharmacol., 51: 816-824 (NOP (ORL1)); Bignon, E. et al. (1999), J. Pharmacol. Exp. Ther. 289: 742-751 (CCK1 (CCKA)); Bloomquist, B. T. et al. (1998), Biochem. Biophys. Res. Commun., 243: 474-479 (GAL2); Brockhaus, M. et al. (1990), Proc. Natl. Acad. Sci. U.S.A., 87: 3127-3131 (TNF-α); Brown, G. B. (1986), J. Neurosci., 6: 2064-2070 (Na+ channel (site 2)); Buchan, K. W. et al. (1994), Brit. J. Pharmacol., 112: 1251-1257 (ETA); Cesura, A. M. et al. (1990), Mol. Pharmacol., 37: 358-366 (MAO-A); Choi, D. S. et al. (1994), FEBS Lett., 352: 393-399 (5-HT2B); Clark, A. F. et al. (1996), Invest. Ophtalmol. Vis. […]

**Q.** Which “M4 percent inhibition of specific binding” value does the source give for `Fc1cccc2c1CCO[C@@H]2[C@H]1CCN1` [Compound I-96, (R)-2-((S)-5-fluoroisochroman-1-yl)azetidine] here?
**A.** M4 (53%)
